Patent publication US20060198900A1, “Bioactive Agent Compositions for Repair of Cell Injuries” (Nutritional Bioscience Limited, priority 2004, published 2006)
“Also recorded” adds a separate entry of the source.

Legend:
[1] = tested on: human colonic cancer cell line HT-29; assay: Cell restitution (migration) assay in wounded HT-29 monolayers; assay type: cell-based; conditions: 10 ug/ml, 8 hours after wounding
Description: Accordingly, the human colonic cancer cell line HT-29 was grown to confluence in six well plates in a solution of DMEM-containing glutamine and 10% fetal calf serum. The monolayers of the cells were then wounded by scraping a disposable pipette tip across the dishes, washed with fresh serum-free medium, and then cultured in a serum-free medium in the presence of 1 mg/ml, 2 mg/ml, and 5 mg/ml colostrum solutions. The rate of movement of the anterior edges of the wounded monolayer cells was then determined by taking serial photomicrographs at various times after wounding (i.e., 0, 4, 8, 12, and 24) hours, using an inverted Nikon TS100 microscope and a Nikon Coolpix 800 digital camera with 100-fold magnification. Identical regions were examined at each time point by premarking the base of the plates to facilitate alignment. […] Each wound was examined in at least three different regions, and expressed as mean and SEM of three separate experiments.
The next study analyzed the potential added benefit of using colostrum rather than milk based product. […] The distance migrated by the leading edge of the cells 8 hours after wounding was then assessed. […]
The next study analysed the potential added benefit of using licorice as a stimulant of restitution. […] The distance migrated by the leading edge of the cells 8 hours after wounding was then assessed. […]

[2] = tested on: recurrent herpes simplex infection (cold sores); conditions: oral 600-1000 mg per day in two doses; increasing from 46 days; cited from earlier work
Caco2-BBe cells = conditions: relatively small amount, 1 mg protein/ml; cited from earlier work
[3] = tested on: indomethacin-induced rat gastric damaging model; assay: Indomethacin-induced rat gastric damaging model; assay type: in vivo; conditions: 1% via gavage before indomethacin

Q: For “epidermal growth factor [EGF, peptide growth factor used as positive control]”, which “amount of migration of leading edge versus DMEM alone” value [1] is on record?
A: The value was “two-fold increase; also recorded: increased the amount of cell movement”.

Q: Which “mean time to recurrence of cold sores” value [2] does the source give for Nc1nc2c(ncn2COCCO)c(=O)[nH]1 [acyclovir] here?
A: The value was 118 days.

Q: Which “growth of Caco2-BBe cells” value (Caco2-BBe cells) does the source give for O=c1c(-c2ccc(O)cc2)coc2cc(O)cc(O)c12 [genistein] here?
A: The value was “increase some parameters of growth”.

Q: With O=C([O-])O.[Na+] [sodium bicarbonate] as the molecule, how does the “reduction of degree of gastric injury compared to saline control” value [3] read?
A: The value was “about 75%”.
